Where “and” joins values, the source holds several entries; their conditions need not be identical. Equal entries are not always repeated. Where two headings read alike, the source gives them in different places.
Legend:
[1] = biological target: T1, Recombinant human JAK2 catalytic domain (Homo sapiens, UniProt O60674); experiment: JAK2 assay polyGT substrate; format: biochemical
T1 construct: amino acids 808-1132; catalog number PV4210; GST; purchased Invitrogen PV4210
Method: Recombinant human JAK2 catalytic domain (amino acids 808-1132; catalog number PV4210) was purchased from Invitrogen. 0.05 mU of JAK2 was incubated with 2.5 μg polyGT substrate (Sigma catalog number P0275) in kinase reaction buffer (10 mM MOPS pH 7.5, 0.5 mM EDTA, 0.01% Brij-35, 1 mM DTT, 15 mM MgAc, 1 μM non-radioactive ATP, 0.25 μCi ^33P-gamma-ATP (Perkin Elmer, catalog number NEG602K001MC) final concentrations) with or without 5 μL containing test compound or vehicle (DMSO, 1% final concentration), in a total volume of 25 μL, in a polypropylene 96-well plate (Greiner, V-bottom). After 90 min at 30° C., reactions were stopped by adding of 25 μL/well of 150 mM phosphoric acid. […] 40 μL/well of Microscint-20 was added, the top of the plates was sealed and readout was performed using the Topcount (Perkin Elmer). Kinase activity was calculated by subtracting counts per min (cpm) obtained in the presence of a positive control inhibitor (10 μM staurosporine) from cpm obtained in the presence of vehicle. The ability of a test compound to inhibit this activity was determined as:
Percentage inhibition=((cpm determined for sample with test compound present−cpm determined for sample with positive control inhibitor) divided by (cpm determined in the presence of vehicle−cpm determined for sample with positive control inhibitor))*100. […]

[2] = system: IFNα-induced STAT1 phosphorylation (JAK1/TYK2 pathway); experiment: Human whole blood assay (hWBA), IFNα stimulation, phospho-STAT1 on CD4+ cells; format: cell-based; conditions: 6 different donors
Method: A flow cytometry analysis was performed to establish JAK1 over JAK2 compound selectivity ex vivo using human whole blood. Therefore, blood is taken from human volunteers who gave informed consent. Blood is then equilibrated for 30 min at 37° C. under gentle rocking, then aliquoted in Eppendorf tubes. Compound is added at different concentrations and incubated at 37° C. for 30 min under gentle rocking and subsequently stimulated for 20 min at 37° C. under gentle rocking with interleukin 6 (IL-6) for JAK1-dependent pathway stimulation, Interferon alpha (IFNα) for JAK1/TYK2 pathway stimulation, interleukin 2 (IL-2) for JAK1/JAK3 pathway stimulation or GM-CSF for JAK2-dependent pathway stimulation. Phospho-STAT1 (for IL-6- and IFNα-stimulated cells) and phospho-STAT5 (for IL-2- and GM-CSF-stimulated cells) levels are then evaluated using FACS analysis. […]
Cells were then washed once with 1×PBS and analyzed on a FACSCanto II flow cytometer (BD Biosciences).
50,000 total events were counted and Phospho-STAT1 positive cells were measured after gating on CD4+ cells, in the lymphocyte gate for IL-6- and IFNα-stimulated cells. Phospho-STAT5 positive cells were measured after gating on CD4+ cells, in the lymphocyte gate for IL-2-stimulated cells. Phospho-STAT5 positive cells were measured after gating on CD33+ cells. […]

T1 sequence (O60674 808-1132): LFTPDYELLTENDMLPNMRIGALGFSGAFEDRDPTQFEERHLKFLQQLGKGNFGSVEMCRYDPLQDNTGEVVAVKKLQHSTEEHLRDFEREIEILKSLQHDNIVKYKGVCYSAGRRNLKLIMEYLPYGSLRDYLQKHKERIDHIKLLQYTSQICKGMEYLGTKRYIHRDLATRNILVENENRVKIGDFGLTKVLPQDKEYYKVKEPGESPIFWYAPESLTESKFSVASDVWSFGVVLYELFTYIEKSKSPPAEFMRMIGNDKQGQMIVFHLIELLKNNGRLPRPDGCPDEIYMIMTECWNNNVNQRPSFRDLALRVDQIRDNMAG

IC50 ([1]; average, read-out: IC50 (average)): 624 nM
IC50 ([1]; individual determinations, read-out: IC50): 567 nM and 365 nM and 256 nM and 915 nM and 1020 nM
IC50 [2]: 15400 nM
Structure (SMILES): Nc1nc2cccc(-c3ccc(CN4CCS(=O)(=O)CC4)cc3)n2n1 [Formula I, 5-[4-(1,1-Dioxothiomorpholin-4-ylmethyl)-phenyl]-[1,2,4]triazolo[1,5-a]pyridin-2-ylamine]

Reference: patent publication US20160296529A1, “AMINOTRIAZOLOPYRIDINE FOR USE IN THE TREATMENT OF INFLAMMATION, AND PHARMACEUTICAL COMPOSITIONS THEREOF” (priority 2012, published 2016)
